Values quoted from earlier work, collected in US11555049B2, “Method for separation and purification of n-acetylglucosamine” (JIANGSU HARVERS BIOTECH CO., LTD., priority 2020, dated 2023).
Converted amounts (≈) assume the structure as drawn.

In the case of `CC(=O)N[C@H]1C(O)O[C@H](CO)[C@@H](O)[C@@H]1O` (some centres unmarked) [GlcNAc, N-acetyl-glucosamine], the solubility in water (0° C. water) is given as 140 mg/mL (≈ 633 mM) and the “solubility in organic solvents” value (organic solvents such as ethanol and propanol) is given as “insoluble”.
